Assay results reported in PMC6193938, “Characterization of a novel AICARFT inhibitor which potently elevates ZMP and has anti-tumor activity in murine models” (Scientific Reports, 2018).

Columns and labels:
FLT3 = molecular target: T1, FLT3 (Homo sapiens, UniProt P36888); experiment: CEREP protein kinase assay; format: biochemical
T1 construct: purchased CEREP Panlabs (Eurofins)
T1 sequence (P36888 27-993): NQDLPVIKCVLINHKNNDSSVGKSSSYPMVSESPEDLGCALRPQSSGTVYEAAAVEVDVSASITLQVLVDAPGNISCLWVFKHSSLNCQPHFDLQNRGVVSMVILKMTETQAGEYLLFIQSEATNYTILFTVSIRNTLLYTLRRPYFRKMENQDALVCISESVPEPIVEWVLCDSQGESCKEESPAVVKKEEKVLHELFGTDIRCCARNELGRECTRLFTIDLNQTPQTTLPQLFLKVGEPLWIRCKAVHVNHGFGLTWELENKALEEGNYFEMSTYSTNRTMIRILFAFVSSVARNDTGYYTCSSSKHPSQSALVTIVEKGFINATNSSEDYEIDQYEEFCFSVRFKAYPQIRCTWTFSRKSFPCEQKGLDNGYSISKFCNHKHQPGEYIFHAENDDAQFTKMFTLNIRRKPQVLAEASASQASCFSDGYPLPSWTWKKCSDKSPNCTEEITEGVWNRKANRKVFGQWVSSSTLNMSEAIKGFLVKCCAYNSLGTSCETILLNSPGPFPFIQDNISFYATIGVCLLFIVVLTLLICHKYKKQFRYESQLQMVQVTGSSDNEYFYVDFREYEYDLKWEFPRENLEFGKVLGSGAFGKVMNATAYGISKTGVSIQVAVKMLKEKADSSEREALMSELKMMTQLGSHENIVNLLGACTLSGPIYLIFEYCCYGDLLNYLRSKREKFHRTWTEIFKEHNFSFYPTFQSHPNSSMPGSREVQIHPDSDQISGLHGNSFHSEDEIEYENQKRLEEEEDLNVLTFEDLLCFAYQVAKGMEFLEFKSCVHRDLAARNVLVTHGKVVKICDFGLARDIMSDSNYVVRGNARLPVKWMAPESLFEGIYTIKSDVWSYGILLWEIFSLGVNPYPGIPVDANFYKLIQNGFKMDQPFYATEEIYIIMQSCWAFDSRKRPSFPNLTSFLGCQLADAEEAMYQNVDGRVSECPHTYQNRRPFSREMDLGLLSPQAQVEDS

ROCK1 = molecular target: T2, ROCK1 (Homo sapiens, UniProt Q13464); experiment: CEREP protein kinase assay; format: biochemical
T2 construct: purchased CEREP Panlabs (Eurofins)

AURA = molecular target: T3, AURA (Homo sapiens, UniProt O14965); experiment: CEREP protein kinase assay; format: biochemical
T3 construct: purchased CEREP Panlabs (Eurofins)
T3 sequence (O14965 1-403): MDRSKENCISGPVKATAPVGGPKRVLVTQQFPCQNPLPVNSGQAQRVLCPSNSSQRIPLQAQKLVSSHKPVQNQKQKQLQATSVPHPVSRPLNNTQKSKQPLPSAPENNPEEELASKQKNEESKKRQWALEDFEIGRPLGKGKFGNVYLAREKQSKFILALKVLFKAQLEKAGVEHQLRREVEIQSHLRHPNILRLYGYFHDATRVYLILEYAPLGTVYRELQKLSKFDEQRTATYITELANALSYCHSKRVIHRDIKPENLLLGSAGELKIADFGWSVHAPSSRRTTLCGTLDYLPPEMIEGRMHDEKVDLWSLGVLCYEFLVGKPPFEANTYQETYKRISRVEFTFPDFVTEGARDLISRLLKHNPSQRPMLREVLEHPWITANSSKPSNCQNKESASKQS

[1] = test system: AMPK T172 phosphorylation in A9 tumors; experiment: Western analysis of tumors; format: in vivo, mouse; details: 100 mg/kg x12 PO
CHK1 = molecular target: T4, CHK1 (Homo sapiens, UniProt O14757); experiment: CEREP protein kinase assay; format: biochemical
T4 construct: purchased CEREP Panlabs (Eurofins)
T4 sequence (O14757 1-476): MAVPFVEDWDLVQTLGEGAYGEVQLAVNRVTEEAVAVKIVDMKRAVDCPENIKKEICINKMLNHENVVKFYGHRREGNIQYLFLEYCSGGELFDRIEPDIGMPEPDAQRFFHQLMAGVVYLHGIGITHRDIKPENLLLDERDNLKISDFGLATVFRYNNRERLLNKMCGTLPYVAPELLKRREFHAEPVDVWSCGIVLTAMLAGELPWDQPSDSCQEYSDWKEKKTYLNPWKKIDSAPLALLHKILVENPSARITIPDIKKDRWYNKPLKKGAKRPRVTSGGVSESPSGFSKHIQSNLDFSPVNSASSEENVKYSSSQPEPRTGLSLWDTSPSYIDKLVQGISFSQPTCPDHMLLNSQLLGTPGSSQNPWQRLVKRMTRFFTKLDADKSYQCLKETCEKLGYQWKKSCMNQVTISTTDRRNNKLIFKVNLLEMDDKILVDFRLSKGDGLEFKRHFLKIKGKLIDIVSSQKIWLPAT

FGFR4 = molecular target: T5, FGFR4 (Homo sapiens, UniProt P22455); experiment: CEREP protein kinase assay; format: biochemical
T5 construct: purchased CEREP Panlabs (Eurofins)

CHK2 = molecular target: T6, CHK2 (Homo sapiens, UniProt O96017); experiment: CEREP protein kinase assay; format: biochemical
T6 construct: purchased CEREP Panlabs (Eurofins)

FLT1 = molecular target: T7, FLT1 (Homo sapiens, UniProt P17948); experiment: CEREP protein kinase assay; format: biochemical
T7 construct: purchased CEREP Panlabs (Eurofins)

MET = molecular target: T8, MET (Homo sapiens, UniProt P08581); experiment: CEREP protein kinase assay; format: biochemical
T8 construct: purchased CEREP Panlabs (Eurofins)

AKT3 = molecular target: T9, AKT3 (Homo sapiens, UniProt Q9Y243); experiment: CEREP protein kinase assay; format: biochemical
T9 construct: purchased CEREP Panlabs (Eurofins)

HIPK2 = molecular target: T10, HIPK2 (Homo sapiens, UniProt Q9H2X6); experiment: CEREP protein kinase assay; format: biochemical
T10 construct: purchased CEREP Panlabs (Eurofins)

SIK = molecular target: T11, SIK (Homo sapiens, UniProt P57059); experiment: CEREP protein kinase assay; format: biochemical
T11 construct: purchased CEREP Panlabs (Eurofins)

PIM1 = molecular target: T12, PIM1 (Homo sapiens, UniProt P11309); experiment: CEREP protein kinase assay; format: biochemical
T12 construct: purchased CEREP Panlabs (Eurofins)
T12 sequence (P11309 whole entry): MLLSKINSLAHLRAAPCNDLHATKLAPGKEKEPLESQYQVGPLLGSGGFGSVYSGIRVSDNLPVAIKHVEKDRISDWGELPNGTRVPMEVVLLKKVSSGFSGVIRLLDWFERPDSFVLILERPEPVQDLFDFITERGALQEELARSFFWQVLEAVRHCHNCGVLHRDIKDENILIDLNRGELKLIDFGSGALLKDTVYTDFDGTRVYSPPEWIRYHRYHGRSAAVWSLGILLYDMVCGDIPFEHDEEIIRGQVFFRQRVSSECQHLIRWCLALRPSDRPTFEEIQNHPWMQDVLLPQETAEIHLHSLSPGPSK

T5 sequence (P22455 22-802): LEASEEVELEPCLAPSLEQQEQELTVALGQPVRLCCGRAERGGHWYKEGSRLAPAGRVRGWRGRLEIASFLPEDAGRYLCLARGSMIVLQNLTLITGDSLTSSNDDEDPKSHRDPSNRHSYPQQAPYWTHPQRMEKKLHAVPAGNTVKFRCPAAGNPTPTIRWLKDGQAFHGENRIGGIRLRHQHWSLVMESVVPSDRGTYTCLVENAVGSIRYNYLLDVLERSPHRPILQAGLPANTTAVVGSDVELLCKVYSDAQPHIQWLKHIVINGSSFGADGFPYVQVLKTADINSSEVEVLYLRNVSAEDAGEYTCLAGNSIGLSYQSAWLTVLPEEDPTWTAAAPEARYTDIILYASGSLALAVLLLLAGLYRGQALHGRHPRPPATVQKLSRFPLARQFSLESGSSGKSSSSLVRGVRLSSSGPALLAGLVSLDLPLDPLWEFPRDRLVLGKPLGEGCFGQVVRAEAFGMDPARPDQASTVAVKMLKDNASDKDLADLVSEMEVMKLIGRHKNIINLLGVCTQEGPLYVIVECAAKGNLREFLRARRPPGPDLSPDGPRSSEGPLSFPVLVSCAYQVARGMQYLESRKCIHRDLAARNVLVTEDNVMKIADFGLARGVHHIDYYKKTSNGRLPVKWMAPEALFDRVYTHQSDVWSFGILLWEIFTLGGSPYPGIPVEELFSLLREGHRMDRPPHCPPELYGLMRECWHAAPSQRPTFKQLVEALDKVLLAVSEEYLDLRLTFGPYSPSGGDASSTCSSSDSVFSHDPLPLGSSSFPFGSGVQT
T7 sequence (P17948 27-1338): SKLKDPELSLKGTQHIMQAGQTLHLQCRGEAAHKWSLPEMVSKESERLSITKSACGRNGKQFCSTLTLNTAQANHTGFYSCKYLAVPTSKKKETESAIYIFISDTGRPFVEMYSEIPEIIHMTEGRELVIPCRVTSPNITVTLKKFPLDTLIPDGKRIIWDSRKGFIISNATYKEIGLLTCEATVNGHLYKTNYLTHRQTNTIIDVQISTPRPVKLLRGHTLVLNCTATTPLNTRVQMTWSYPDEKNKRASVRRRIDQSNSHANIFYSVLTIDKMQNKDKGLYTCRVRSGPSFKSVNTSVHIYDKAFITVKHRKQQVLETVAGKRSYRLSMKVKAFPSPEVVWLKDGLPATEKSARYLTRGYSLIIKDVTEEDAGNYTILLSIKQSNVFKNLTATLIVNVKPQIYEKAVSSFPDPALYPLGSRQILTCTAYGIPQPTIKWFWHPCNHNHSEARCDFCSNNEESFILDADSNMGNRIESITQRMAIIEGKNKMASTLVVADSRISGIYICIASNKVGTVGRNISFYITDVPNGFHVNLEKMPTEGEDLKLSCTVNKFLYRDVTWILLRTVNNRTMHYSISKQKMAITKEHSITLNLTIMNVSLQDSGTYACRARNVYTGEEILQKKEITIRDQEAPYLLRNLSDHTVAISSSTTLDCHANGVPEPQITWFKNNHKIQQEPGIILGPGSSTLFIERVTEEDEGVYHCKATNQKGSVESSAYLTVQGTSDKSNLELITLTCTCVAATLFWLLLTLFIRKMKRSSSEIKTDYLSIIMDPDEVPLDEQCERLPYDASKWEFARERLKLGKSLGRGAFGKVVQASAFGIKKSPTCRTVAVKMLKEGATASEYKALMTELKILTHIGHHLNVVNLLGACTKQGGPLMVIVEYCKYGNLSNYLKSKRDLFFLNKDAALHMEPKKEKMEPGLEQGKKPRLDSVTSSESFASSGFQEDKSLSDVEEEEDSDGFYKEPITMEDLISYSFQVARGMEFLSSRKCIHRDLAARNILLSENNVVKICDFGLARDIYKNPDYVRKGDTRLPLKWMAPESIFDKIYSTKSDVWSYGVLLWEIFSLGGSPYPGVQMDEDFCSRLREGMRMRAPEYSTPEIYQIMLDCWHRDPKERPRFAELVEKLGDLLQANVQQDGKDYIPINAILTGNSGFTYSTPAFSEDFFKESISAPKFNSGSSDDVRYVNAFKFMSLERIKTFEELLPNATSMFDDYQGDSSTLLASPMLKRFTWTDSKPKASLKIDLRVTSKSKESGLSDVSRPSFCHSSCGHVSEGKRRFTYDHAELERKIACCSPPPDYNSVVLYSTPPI
T11 sequence (P57059 whole entry): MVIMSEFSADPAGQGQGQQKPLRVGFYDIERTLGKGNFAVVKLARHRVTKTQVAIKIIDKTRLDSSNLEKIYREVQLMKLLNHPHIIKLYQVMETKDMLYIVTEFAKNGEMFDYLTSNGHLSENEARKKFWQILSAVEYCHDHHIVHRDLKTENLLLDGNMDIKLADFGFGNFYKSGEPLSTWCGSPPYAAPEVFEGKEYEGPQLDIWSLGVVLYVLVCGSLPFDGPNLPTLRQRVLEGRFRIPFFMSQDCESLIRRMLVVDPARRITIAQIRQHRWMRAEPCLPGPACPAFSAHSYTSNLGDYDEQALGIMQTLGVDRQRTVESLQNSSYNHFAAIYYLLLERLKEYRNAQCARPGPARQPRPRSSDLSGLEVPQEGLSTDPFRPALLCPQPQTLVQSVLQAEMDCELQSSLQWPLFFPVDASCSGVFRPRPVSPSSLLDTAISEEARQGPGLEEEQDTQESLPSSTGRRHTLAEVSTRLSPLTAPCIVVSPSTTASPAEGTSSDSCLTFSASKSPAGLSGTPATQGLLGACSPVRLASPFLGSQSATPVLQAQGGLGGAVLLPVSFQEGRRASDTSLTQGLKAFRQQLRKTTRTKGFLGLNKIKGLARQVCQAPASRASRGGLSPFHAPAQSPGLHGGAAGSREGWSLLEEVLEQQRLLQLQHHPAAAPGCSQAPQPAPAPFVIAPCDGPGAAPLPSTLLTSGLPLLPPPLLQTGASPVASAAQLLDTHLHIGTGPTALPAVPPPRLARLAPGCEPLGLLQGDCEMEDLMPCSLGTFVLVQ
T6 sequence (O96017 whole entry): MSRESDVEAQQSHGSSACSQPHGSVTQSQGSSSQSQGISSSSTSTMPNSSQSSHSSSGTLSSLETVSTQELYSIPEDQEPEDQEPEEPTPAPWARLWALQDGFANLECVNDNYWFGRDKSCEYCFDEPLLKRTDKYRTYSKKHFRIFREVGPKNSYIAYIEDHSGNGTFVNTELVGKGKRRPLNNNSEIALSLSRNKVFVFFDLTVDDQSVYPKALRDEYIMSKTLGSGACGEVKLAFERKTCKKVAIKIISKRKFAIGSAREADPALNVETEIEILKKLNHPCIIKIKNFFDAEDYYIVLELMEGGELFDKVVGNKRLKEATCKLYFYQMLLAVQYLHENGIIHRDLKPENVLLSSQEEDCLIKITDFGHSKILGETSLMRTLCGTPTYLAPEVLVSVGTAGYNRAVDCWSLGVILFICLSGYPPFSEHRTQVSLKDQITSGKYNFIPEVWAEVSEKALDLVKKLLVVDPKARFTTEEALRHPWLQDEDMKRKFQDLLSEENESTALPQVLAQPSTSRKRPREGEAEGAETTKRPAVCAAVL
T10 sequence (Q9H2X6 whole entry): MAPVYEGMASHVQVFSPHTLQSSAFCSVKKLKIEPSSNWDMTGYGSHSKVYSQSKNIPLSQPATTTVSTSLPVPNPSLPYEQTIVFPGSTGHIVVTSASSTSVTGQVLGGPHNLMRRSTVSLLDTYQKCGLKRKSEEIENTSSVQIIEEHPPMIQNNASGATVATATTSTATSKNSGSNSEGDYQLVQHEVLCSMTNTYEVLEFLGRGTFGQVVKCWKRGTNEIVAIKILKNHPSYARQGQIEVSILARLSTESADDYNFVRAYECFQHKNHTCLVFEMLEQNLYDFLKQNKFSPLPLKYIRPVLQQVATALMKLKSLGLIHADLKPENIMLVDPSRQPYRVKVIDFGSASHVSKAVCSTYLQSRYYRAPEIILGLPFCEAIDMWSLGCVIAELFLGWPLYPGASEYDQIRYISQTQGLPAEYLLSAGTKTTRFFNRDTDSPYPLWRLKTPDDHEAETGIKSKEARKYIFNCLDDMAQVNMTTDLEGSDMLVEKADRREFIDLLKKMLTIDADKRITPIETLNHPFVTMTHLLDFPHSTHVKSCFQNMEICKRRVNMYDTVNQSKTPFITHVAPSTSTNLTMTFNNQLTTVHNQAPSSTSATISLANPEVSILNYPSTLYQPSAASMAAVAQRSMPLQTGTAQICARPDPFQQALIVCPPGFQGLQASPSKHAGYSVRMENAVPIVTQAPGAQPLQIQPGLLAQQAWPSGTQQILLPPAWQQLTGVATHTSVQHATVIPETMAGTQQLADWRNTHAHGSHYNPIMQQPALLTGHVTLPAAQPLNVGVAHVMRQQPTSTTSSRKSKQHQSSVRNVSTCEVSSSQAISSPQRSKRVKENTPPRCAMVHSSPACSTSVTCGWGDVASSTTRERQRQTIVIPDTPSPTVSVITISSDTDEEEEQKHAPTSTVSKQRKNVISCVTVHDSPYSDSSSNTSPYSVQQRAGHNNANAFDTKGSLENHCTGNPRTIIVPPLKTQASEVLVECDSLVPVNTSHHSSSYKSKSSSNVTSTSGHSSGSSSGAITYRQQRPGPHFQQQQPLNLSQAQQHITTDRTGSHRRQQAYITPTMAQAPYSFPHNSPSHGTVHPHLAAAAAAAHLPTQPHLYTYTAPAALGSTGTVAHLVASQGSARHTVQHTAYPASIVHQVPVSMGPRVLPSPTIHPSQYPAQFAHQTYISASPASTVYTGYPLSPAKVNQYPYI

O=c1[nH]ccc2cc(F)c(NS(=O)(=O)c3ccc(N4CC[C@@H](O)C4)s3)cc12 [LSN3213128, N-(6-Fluoro-1-oxo-1,2-dihydroisoquinolin-7-yl)-5-[(3R)-3-hydroxypyrrolidin-1-yl]thiophene-2-sulfonamide]
inhibition at 0.2 µM (FLT3; @ 0.2 uM): -12.1% | inhibition at 2 µM (FLT3; @ 2 uM): 10.7% | inhibition at 20 µM (FLT3; @ 20 uM): 53.2% | inhibition at 0.2 µM (ROCK1; @ 0.2 uM): 7.67% | inhibition at 2 µM (ROCK1; @ 2 uM): 10.9% | inhibition at 20 µM (ROCK1; @ 20 uM): 21.3% | inhibition at 0.2 µM (AURA; @ 0.2 uM): -4.11% | inhibition at 2 µM (AURA; @ 2 uM): 1.86% | inhibition at 20 µM (AURA; @ 20 uM): 4.28% | AMPK T172 phosphorylation levels in vivo [1]: showed no change | inhibition at 0.2 µM (CHK1; @ 0.2 uM): -8.96% | inhibition at 2 µM (CHK1; @ 2 uM): 14.5% | inhibition at 20 µM (CHK1; @ 20 uM): 5.24% | inhibition at 0.2 µM (FGFR4; @ 0.2 uM): 0.737% | inhibition at 2 µM (FGFR4; @ 2 uM): 13.2% | inhibition at 20 µM (FGFR4; @ 20 uM): 8.82% | inhibition at 0.2 µM (CHK2; @ 0.2 uM): -9.59% | inhibition at 2 µM (CHK2; @ 2 uM): 14.3% | inhibition at 20 µM (CHK2; @ 20 uM): 8.93% | inhibition at 0.2 µM (FLT1; @ 0.2 uM): -9.26% | inhibition at 2 µM (FLT1; @ 2 uM): 4.29% | inhibition at 20 µM (FLT1; @ 20 uM): 33.8% | inhibition at 0.2 µM (MET; @ 0.2 uM): -5.89% | inhibition at 2 µM (MET; @ 2 uM): 8.99% | inhibition at 20 µM (MET; @ 20 uM): 17.8% | inhibition at 0.2 µM (AKT3; @ 0.2 uM): -0.699% | inhibition at 2 µM (AKT3; @ 2 uM): 5.67% | inhibition at 20 µM (AKT3; @ 20 uM): 13% | inhibition at 0.2 µM (HIPK2; @ 0.2 uM): -9.39% | inhibition at 2 µM (HIPK2; @ 2 uM): 6.25% | inhibition at 20 µM (HIPK2; @ 20 uM): 14.1% | inhibition at 0.2 µM (SIK; @ 0.2 uM): -1.42% | inhibition at 2 µM (SIK; @ 2 uM): 3.69% | inhibition at 20 µM (SIK; @ 20 uM): 3.12% | inhibition at 0.2 µM (PIM1; @ 0.2 uM): 7.96% | inhibition at 2 µM (PIM1; @ 2 uM): 13.3% | inhibition at 20 µM (PIM1; @ 20 uM): 26.5%
